Test results taken from US20260193271A1, “PAN-KRAS INHIBITOR COMPOUND” (ADLAI NORTYE BIOPHARMA CO., LTD., priority 2022, published 2026).

How the values were obtained:
AsPC-1 (G12D) = test: In vitro cell proliferation inhibition test (CellTiter-Glo), AsPC-1; format: cell-based; conditions: Homo sapiens, ASPC1, AsPC-1 pancreas cell line, KRAS (p.G12D), 72 h co-incubation
Procedure, shortened: (§1)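 IC50 was derived by four-parameter fitting of normalized CellTiter-Glo signals. These were measured after 72 h co-incubation with compound at 10 concentrations, 3-fold serial, final maximum 10 μM. Plating was 1000-5000 cells/well, adjusted to growth rate, with overnight attachment at 37 °C, 5% CO2.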

SW480 (G12V) = test: In vitro cell proliferation inhibition test (CellTiter-Glo), SW480; format: cell-based; conditions: Homo sapiens, SW480 colon cell line, KRAS (p.G12V), 72 h co-incubation
Procedure, shortened: as §1

Structure (SMILES) | IC50 (AsPC-1 (G12D)) [nM] | IC50 (SW480 (G12V)) [nM]
CO[C@@H](C)c1ncc(-c2cnc(CN3CCOCC3)nc2)cc1-c1c2c3cc(ccc3n1CC(F)(F)F)-c1csc(n1)C[C@H](NC(=O)[C@H]1[C@H](C)[C@@H]1C)C(=O)N1CCC[C@H](N1)C(=O)OCC(C)(C)C2 (atropisomer, axis not shown) [Compound 44, (1r,2R,3S)-N-((6^3S,4S,Z)-1^2-(2-((S)-1-methoxyethyl)-5-(2-(morpholinomethyl)pyrimidin-5-yl)pyridin-3-yl)-10,10-dimethyl-5,7-dioxo-1^1-(2,2,2-trifluoroethyl)-6^1,6^2,6^3,6^4,6^5,6^6-hexahydro-1^1H-8-oxa-2(4,2)-thiazola-1(5,3)-indola-6(1,3)-pyridazinacycloundecaphane-4-yl)-2,3-dimethylcyclopropane-1-carboxamide] | 0.26 | 0.35
CCn1c(-c2cc(-c3cnc4c(c3)CN(C)C4)cnc2[C@H](C)OC)c2c3cc(ccc31)-c1csc(n1)C[C@H](NC(=O)[C@H]1C[C@@H]1C)C(=O)N1CCC[C@H](N1)C(=O)OCC(C)(C)C2 (atropisomer, axis not shown) [Compound 45, (1S,2S)-N-((6^3S,4S,Z)-1^1-ethyl-1^2-(2-((S)-1-methoxyethyl)-5-(6-methyl-6,7-dihydro-5H-pyrrolo[3,4-b]pyridin-3-yl)pyridin-3-yl)-10,10-dimethyl-5,7-dioxo-6^1,6^2,6^3,6^4,6^5,6^6-hexahydro-1^1H-8-oxa-2(4,2)-thiazola-1(5,3)-indola-6(1,3)-pyridazinacycloundecaphane-4-yl)-2-methylcyclopropane-1-carboxamide] | 5.3 | 6.2
CCn1c(-c2cc(-c3ccc(CN4CC[C@@H](F)C4)cn3)cnc2[C@H](C)OC)c2c3cc(ccc31)-c1csc(n1)C[C@H](NC(=O)[C@H]1C[C@@H]1C)C(=O)N1CCC[C@H](N1)C(=O)OCC(C)(C)C2 (atropisomer, axis not shown) [Compound 46, (1S,2S)-N-((6^3S,4S,Z)-1^1-ethyl-1^2-(5-(((R)-3-fluoropyrrolidin-1-yl)methyl)-6′-((S)-1-methoxyethyl)-[2,3′-bipyridin]-5′-yl)-10,10-dimethyl-5,7-dioxo-6^1,6^2,6^3,6^4,6^5,6^6-hexahydro-1^1H-8-oxa-2(4,2)-thiazola-1(5,3)-indola-6(1,3)-pyridazinacycloundecaphane-4-yl)-2-methylcyclopropane-1-carboxamide] | 6.1 | 4.1
CCn1c(-c2cc(-c3ccc(CN4CC[C@@H](O)C4)cn3)cnc2[C@H](C)OC)c2c3cc(ccc31)-c1csc(n1)C[C@H](NC(=O)[C@H]1C[C@@H]1C)C(=O)N1CCC[C@H](N1)C(=O)OCC(C)(C)C2 (atropisomer, axis not shown) [Compound 47, (1S,2S)-N-((6^3S,4S,Z)-1^1-ethyl-1^2-(5-(((R)-3-hydroxypyrrolidin-1-yl)methyl)-6′-((S)-1-methoxyethyl)-[2,3′-bipyridin]-5′-yl)-10,10-dimethyl-5,7-dioxo-6^1,6^2,6^3,6^4,6^5,6^6-hexahydro-1^1H-8-oxa-2(4,2)-thiazola-1(5,3)-indola-6(1,3)-pyridazinacycloundecaphane-4-yl)-2-methylcyclopropane-1-carboxamide] | 2.9 | 6.1
CCn1c(-c2cc(-c3ncc(CN4CCS(=N)(=O)CC4)cn3)cnc2[C@H](C)OC)c2c3cc(ccc31)-c1csc(n1)C[C@H](NC(=O)[C@H]1C[C@@H]1C)C(=O)N1CCC[C@H](N1)C(=O)OCC(C)(C)C2 (atropisomer, axis not shown) [Compound 49, (1S,2S)-N-((6^3S,4S,Z)-1^1-ethyl-1^2-(5-(5-((1-imino-1-oxido-1λ^6-thiomorpholino)methyl)pyrimidin-2-yl)-2-((S)-1-methoxyethyl)pyridin-3-yl)-10,10-dimethyl-5,7-dioxo-6^1,6^2,6^3,6^4,6^5,6^6-hexahydro-1^1H-8-oxa-2(4,2)-thiazola-1(5,3)-indola-6(1,3)-pyridazinacycloundecaphane-4-yl)-2-methylcyclopropane-1-carboxamide] | 1 | 4.3
CCn1c(-c2cc(-c3cc4c(n(C)c3=O)CCN(C)C4)cnc2[C@H](C)OC)c2c3cc(ccc31)-c1csc(n1)C[C@H](NC(=O)[C@H]1C[C@@H]1C)C(=O)N1CCC[C@H](N1)C(=O)OCC(C)(C)C2 (atropisomer, axis not shown) [Compound 52, (1S,2S)-N-((6^3S,4S,Z)-1^2-(5-(1,6-dimethyl-2-oxo-1,2,5,6,7,8-hexahydro-1,6-naphthyridin-3-yl)-2-((S)-1-methoxyethyl)pyridin-3-yl)-1^1-ethyl-10,10-dimethyl-5,7-dioxo-6^1,6^2,6^3,6^4,6^5,6^6-hexahydro-1^1H-8-oxa-2(4,2)-thiazola-1(5,3)-indola-6(1,3)-pyridazinacycloundecaphane-4-yl)-2-methylcyclopropane-1-carboxamide] | 0.21 | 1.2
CCn1c(-c2cc(-c3cnc(CN4CCN(C)CC4)nc3)cnc2[C@H](C)OC)c2c3cc(ccc31)-c1csc(n1)C[C@H](NC(=O)[C@H]1C[C@@H]1C)C(=O)N1CCC[C@H](N1)C(=O)OCC(C)(C)C2 (atropisomer, axis not shown) [Compound 53, (1S,2S)-N-((6^3S,4S,Z)-1^1-ethyl-1^2-(2-((S)-1-methoxyethyl)-5-(2-((4-methylpiperazin-1-yl)methyl)pyrimidin-5-yl)pyridin-3-yl)-10,10-dimethyl-5,7-dioxo-6^1,6^2,6^3,6^4,6^5,6^6-hexahydro-1^1H-8-oxa-2(4,2)-thiazola-1(5,3)-indola-6(1,3)-pyridazinacycloundecaphane-4-yl)-2-methylcyclopropane-1-carboxamide] | 4.3 | 1.7

Now from value to molecule:

IC50 (AsPC-1 (G12D)) [nM] | IC50 (SW480 (G12V)) [nM] | Structure (SMILES)
2.6 | 3.7 | CCn1c(-c2cc(-c3ccc(CN4CCN(C)CC4)cn3)cnc2[C@H](C)OC)c2c3cc(ccc31)-c1csc(n1)C[C@H](NC(=O)[C@H]1C[C@@H]1C)C(=O)N1CCC[C@H](N1)C(=O)OCC(C)(C)C2 (atropisomer, axis not shown) [Compound 41, (1S,2S)-N-((6^3S,4S,Z)-1^1-ethyl-1^2-(6′-((S)-1-methoxyethyl)-5-((4-methylpiperazin-1-yl)methyl)-[2,3′-bipyridin]-5′-yl)-10,10-dimethyl-5,7-dioxo-6^1,6^2,6^3,6^4,6^5,6^6-hexahydro-1^1H-8-oxa-2(4,2)-thiazola-1(5,3)-indola-6(1,3)-pyridazinacycloundecaphane-4-yl)-2-methylcyclopropane-1-carboxamide]
3 | 3.5 | CCn1c(-c2cc(-c3cncc(CN4CCS(=N)(=O)CC4)c3)cnc2[C@H](C)OC)c2c3cc(ccc31)-c1csc(n1)C[C@H](NC(=O)[C@H]1[C@H](C)[C@@H]1C)C(=O)N1CCC[C@H](N1)C(=O)OCC(C)(C)C2 (atropisomer, axis not shown) [Compound 42, (1r,2R,3S)-N-((6^3S,4S,Z)-1^1-ethyl-1^2-(5′-((1-imino-1-oxido-16-thiomorpholino)methyl)-6-((S)-1-methoxyethyl)-[3,3′-bipyridin]-5-yl)-10,10-dimethyl-5,7-dioxo-6^1,6^2,6^3,6^4,6^5,6^6-hexahydro-1^1H-8-oxa-2(4,2)-thiazola-1(5,3)-indola-6(1,3)-pyridazinacycloundecaphane-4-yl)-2,3-dimethylcyclopropane-1-carboxamide]
17 | 3.8 | CCn1c(-c2cc(-c3cc4c(cn3)CN(C)C4)cnc2[C@H](C)OC)c2c3cc(ccc31)-c1csc(n1)C[C@H](NC(=O)[C@H]1C[C@@H]1C)C(=O)N1CCC[C@H](N1)C(=O)OCC(C)(C)C2 (atropisomer, axis not shown) [Compound 43, (1S,2S)-N-((6^3S,4S,Z)-1^1-ethyl-1^2-(2-((S)-1-methoxyethyl)-5-(2-methyl-2,3-dihydro-1H-pyrrolo[3,4-c]pyridin-6-yl)pyridin-3-yl)-10,10-dimethyl-5,7-dioxo-6^1,6^2,6^3,6^4,6^5,6^6-hexahydro-1^1H-8-oxa-2(4,2)-thiazola-1(5,3)-indola-6(1,3)-pyridazinacycloundecaphane-4-yl)-2-methylcyclopropane-1-carboxamide]
8.5 | 7.8 | CCn1c(-c2cc(-c3ccc(CN4CC[C@@H](S(C)(=O)=O)C4)cn3)cnc2[C@H](C)OC)c2c3cc(ccc31)-c1csc(n1)C[C@H](NC(=O)[C@H]1C[C@@H]1C)C(=O)N1CCC[C@H](N1)C(=O)OCC(C)(C)C2 (atropisomer, axis not shown) [Compound 50, (1S,2S)-N-((6^3S,4S,Z)-1^1-ethyl-1^2-(6′-((S)-1-methoxyethyl)-5-(((R)-3-(methylsulfonyl)pyrrolidin-1-yl)methyl)-[2,3′-bipyridin]-5′-yl)-10,10-dimethyl-5,7-dioxo-6^1,6^2,6^3,6^4,6^5,6^6-hexahydro-1^1H-8-oxa-2(4,2)-thiazola-1(5,3)-indola-6(1,3)-pyridazinacycloundecaphane-4-yl)-2-methylcyclopropane-1-carboxamide]
0.9 | 1.2 | CCn1c(-c2cc(-c3ncc(CN4CCS(=O)(=O)CC4)cn3)cnc2[C@H](C)OC)c2c3cc(ccc31)-c1csc(n1)C[C@H](NC(=O)[C@H]1C[C@@H]1C)C(=O)N1CCC[C@H](N1)C(=O)OCC(C)(C)C2 (atropisomer, axis not shown) [Compound 51, (1S,2S)-N-((6^3S,4S,Z)-1^2-(5-(5-((1,1-dioxidothiomorpholino)methyl)pyrimidin-2-yl)-2-((S)-1-methoxyethyl)pyridin-3-yl)-1^1-ethyl-10,10-dimethyl-5,7-dioxo-6^1,6^2,6^3,6^4,6^5,6^6-hexahydro-1^1H-8-oxa-2(4,2)-thiazola-1(5,3)-indola-6(1,3)-pyridazinacycloundecaphane-4-yl)-2-methylcyclopropane-1-carboxamide]
